ChEMBL document CHEMBL1201862, “PubChem BioAssay data set” (2004)
Structures can show the parent of a compound that is named as a salt.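 96-well plates; 48 h exposure; 5 concentrations. Endpoints by linear interpolation between flanking doses. Not reached: highest tested concentration assigned. The concentration for 50% growth inhibition is given as GI50.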 Active and inactive are the calls of the source. Cut-off read from the data, not from the text of the source: active = GI50 up to about 1.1 µM and inactive = higher. Where a SMILES comes first, the peptide text is derived from it. The star is where a group is joined. Boc = CC(C)(C)OC(=O)*; OBn = c1ccc(CO*)cc1

What was measured:
Assay in all cases: inhibition of tumour cell growth, NCI panel, 48 h
DU-145 = tested on: DU-145
T47D = tested on: T47D
U-251 = tested on: U-251
HCT-15 = tested on: HCT-15
Hs-578T = tested on: Hs-578T
SN12C = tested on: SN12C
KM12 = tested on: KM12
A549 = tested on: A549
IGROV-1 = tested on: IGROV-1
OVCAR-3 = tested on: OVCAR-3
SW-620 = tested on: SW-620
OVCAR-5 = tested on: OVCAR-5
HOP-62 = tested on: HOP-62
SNB-19 = tested on: SNB-19
SF-295 = tested on: SF-295
SK-OV-3 = tested on: SK-OV-3
786-0 = tested on: 786-0
SF-268 = tested on: SF-268
SF-539 = tested on: SF-539
UACC-62 = tested on: UACC-62

Compound	GI50 (DU-145)	GI50 (T47D)	GI50 (U-251)	GI50 (HCT-15)	GI50 (Hs-578T)	GI50 (SN12C)	GI50 (KM12)	GI50 (A549)	GI50 (IGROV-1)	GI50 (OVCAR-3)	GI50 (SW-620)	GI50 (OVCAR-5)	GI50 (HOP-62)	GI50 (SNB-19)	GI50 (SF-295)	GI50 (SK-OV-3)	GI50 (786-0)	GI50 (SF-268)	GI50 (SF-539)	GI50 (UACC-62)
Cc1cc(S(=O)(=O)Nc2cc(N)n[nH]2)c(SCc2nc(N)nc(N(C)C)n2)cc1Cl	> 10 µM (inactive)	> 10 µM (inactive)	> 10 µM (inactive)	> 10 µM	> 10 µM (inactive)	> 10 µM (inactive)	> 10 µM (inactive)	> 10 µM (inactive)	> 10 µM (inactive)	> 10 µM (inactive)	> 10 µM (inactive)	> 10 µM (inactive)	> 10 µM (inactive)	> 10 µM (inactive)	> 10 µM (inactive)	> 10 µM (inactive)	> 10 µM (inactive)	> 10 µM (inactive)	> 10 µM (inactive)	
CCC(=O)NCC1CCCN2CCCCC12 (stereo not drawn)	> 100 µM (inactive)	> 100 µM (inactive)	> 100 µM (inactive)	> 100 µM	> 100 µM (inactive)	> 100 µM (inactive)	> 100 µM (inactive)	> 100 µM (inactive)			> 100 µM (inactive)			> 100 µM (inactive)	> 100 µM (inactive)	> 100 µM (inactive)	> 100 µM (inactive)	> 100 µM (inactive)	> 100 µM (inactive)	> 100 µM (inactive)
CCOC(=O)c1nc2ccccc2nc1Nc1ccc(Cl)c(Cl)c1	> 100 µM (inactive)	60.8 µM (inactive)	23.7 µM (inactive)	> 100 µM	34.4 µM (inactive)	81.5 µM (inactive)	> 100 µM (inactive)	59.4 µM (inactive)	32.5 µM (inactive)	59.3 µM (inactive)		> 100 µM (inactive)	30.4 µM (inactive)	27.2 µM (inactive)		27.7 µM (inactive)	29.2 µM (inactive)	37.6 µM (inactive)	60.5 µM (inactive)	25.6 µM (inactive)
Cc1ccc(S(=O)(=O)NC(=O)NC(CC(N)=O)C(=O)O)cc1 (stereo not drawn)	> 100 µM (inactive)	> 100 µM (inactive)	> 100 µM (inactive)	> 100 µM	> 100 µM (inactive)	> 100 µM (inactive)	> 100 µM (inactive)	> 100 µM (inactive)	> 100 µM (inactive)		> 100 µM (inactive)	> 100 µM (inactive)	> 100 µM (inactive)	> 100 µM (inactive)	> 100 µM (inactive)	> 100 µM (inactive)	> 100 µM (inactive)	> 100 µM (inactive)	> 100 µM (inactive)	> 100 µM (inactive)
CC1(C)CC2=C(Sc3ccccc3N2)C(=O)C1C(=O)C(=O)Nc1cc(Cl)ccc1Cl (stereo not drawn)	> 100 µM (inactive)	82.8 µM (inactive)	> 100 µM (inactive)	> 100 µM	> 100 µM (inactive)	> 100 µM (inactive)	> 100 µM (inactive)	> 100 µM (inactive)	> 100 µM (inactive)	> 100 µM (inactive)	> 100 µM (inactive)	> 100 µM (inactive)		> 100 µM (inactive)	> 100 µM (inactive)	> 100 µM (inactive)	> 100 µM (inactive)	> 100 µM (inactive)	> 100 µM (inactive)	> 100 µM (inactive)
O=C(OCCN1CCCCCC1)C(c1ccsc1)C1CCCCC1 (stereo not drawn) [CETIEDIL CITRATE]	16.6 µM (inactive)	3.28 µM (inactive)	17.2 µM (inactive)	14.4 µM	20.7 µM (inactive)	17.9 µM (inactive)	16.8 µM (inactive)	19.4 µM (inactive)	11.1 µM (inactive)	15 µM (inactive)	16.6 µM (inactive)	17.3 µM (inactive)	15.1 µM (inactive)	18.7 µM (inactive)	17.9 µM (inactive)	16.9 µM (inactive)	16.5 µM (inactive)	17.6 µM (inactive)	16.8 µM (inactive)	
COc1ccc(CNc2nc3ccccc3nc2C(=O)O)cc1	66.4 µM (inactive)	65.3 µM (inactive)	58.6 µM (inactive)	23.1 µM	> 100 µM (inactive)	> 100 µM (inactive)	65.6 µM (inactive)	> 100 µM (inactive)	> 100 µM (inactive)	> 100 µM (inactive)	> 100 µM (inactive)	> 100 µM (inactive)	> 100 µM (inactive)	> 100 µM (inactive)	51.4 µM (inactive)		57.8 µM (inactive)	> 100 µM (inactive)	> 100 µM (inactive)	> 100 µM (inactive)
C=CCOCn1cnc2c(=O)[nH]c(N)nc21	> 100 µM (inactive)	> 100 µM (inactive)	> 100 µM (inactive)	> 100 µM	> 100 µM (inactive)	> 100 µM (inactive)	> 100 µM (inactive)	> 100 µM (inactive)	> 100 µM (inactive)		> 100 µM (inactive)	> 100 µM (inactive)	> 100 µM (inactive)	> 100 µM (inactive)	> 100 µM (inactive)	> 100 µM (inactive)	> 100 µM (inactive)	> 100 µM (inactive)	> 100 µM (inactive)	> 100 µM (inactive)
CC(=N\N=C\c1ccccn1)/C(C)=N/N=C(C)/C(C)=N/N=C(C)/C(C)=N/N=C/c1ccccn1	> 100 µM (inactive)	> 100 µM (inactive)	> 100 µM (inactive)	> 100 µM	> 100 µM (inactive)	> 100 µM (inactive)	> 100 µM (inactive)	> 100 µM (inactive)	> 100 µM (inactive)	> 100 µM (inactive)	> 100 µM (inactive)	> 100 µM (inactive)	> 100 µM (inactive)	> 100 µM (inactive)	> 100 µM (inactive)	> 100 µM (inactive)	> 100 µM (inactive)	> 100 µM (inactive)	> 100 µM (inactive)	
CC1(C)C(=O)/C(=C/c2ccccc2)C(C)(C)C1(C)C	40.7 µM (inactive)	> 65.3 µM (inactive)	55.5 µM (inactive)	54.1 µM	40.6 µM (inactive)	50.8 µM (inactive)	49.9 µM (inactive)	57.5 µM (inactive)	60.1 µM (inactive)	> 39.3 µM (inactive)	60.3 µM (inactive)	> 100 µM (inactive)	40.9 µM (inactive)	> 100 µM (inactive)	> 100 µM (inactive)	> 55.5 µM (inactive)	> 81.8 µM (inactive)		> 100 µM (inactive)	54.1 µM (inactive)
O=C(C(Cl)=C(N1CCOCC1)N1CCOCC1)C(Cl)Cl	> 100 µM (inactive)	> 100 µM (inactive)		> 100 µM	> 100 µM (inactive)	> 100 µM (inactive)	> 100 µM (inactive)	> 100 µM (inactive)	> 100 µM (inactive)	> 100 µM (inactive)	> 100 µM (inactive)		> 100 µM (inactive)	> 100 µM (inactive)		> 100 µM (inactive)	> 100 µM (inactive)	> 100 µM (inactive)	> 100 µM (inactive)	> 100 µM (inactive)
O=S1(=O)c2ccccc2C(Nc2ccccc2)N1c1ccccc1 (stereo not drawn)	> 100 µM (inactive)	24.5 µM (inactive)	61 µM (inactive)	48 µM	> 100 µM (inactive)	> 100 µM (inactive)	72.3 µM (inactive)	56.8 µM (inactive)	36.9 µM (inactive)	> 100 µM (inactive)	> 100 µM (inactive)	> 100 µM (inactive)	> 100 µM (inactive)		> 100 µM (inactive)	> 100 µM (inactive)	> 100 µM (inactive)	> 100 µM (inactive)	> 100 µM (inactive)	> 100 µM (inactive)
Cc1ccc(O)c(-c2cc(-c3ccccc3)nc(/N=C\c3ccccc3)n2)c1	> 100 µM (inactive)	7.69 µM (inactive)	20.9 µM (inactive)	11.6 µM	25.3 µM (inactive)	42.9 µM (inactive)	17.5 µM (inactive)	23.1 µM (inactive)	16.6 µM (inactive)	23.7 µM (inactive)	> 100 µM (inactive)	> 100 µM (inactive)	18.1 µM (inactive)	29.8 µM (inactive)	36.1 µM (inactive)		32.5 µM (inactive)	21.9 µM (inactive)	29.6 µM (inactive)	8.17 µM (inactive)
N/N=C(\N)Nc1cccc2ccccc12	> 100 µM (inactive)	> 100 µM (inactive)	> 100 µM (inactive)	> 100 µM	> 100 µM (inactive)	> 100 µM (inactive)	> 100 µM (inactive)	> 100 µM (inactive)	> 100 µM (inactive)		> 100 µM (inactive)	> 100 µM (inactive)	> 100 µM (inactive)	> 100 µM (inactive)	> 100 µM (inactive)	> 100 µM (inactive)	> 100 µM (inactive)	> 100 µM (inactive)	> 100 µM (inactive)	> 100 µM (inactive)
CC(NC(=O)C(Cc1ccccc1)NC(=O)C(Cc1ccccc1)NC(=O)OC(C)(C)C)C(=O)OCc1ccccc1 (stereo not drawn) (Boc-Phe-Phe-Ala-OBn; configuration not given here)	> 100 µM (inactive)	> 100 µM (inactive)	63.7 µM (inactive)		73.3 µM (inactive)	> 100 µM (inactive)	> 100 µM (inactive)	> 100 µM (inactive)	> 100 µM (inactive)	> 100 µM (inactive)	> 100 µM (inactive)	> 100 µM (inactive)	> 100 µM (inactive)		43.5 µM (inactive)	> 100 µM (inactive)	> 100 µM (inactive)	> 100 µM (inactive)	37.9 µM (inactive)	49.4 µM (inactive)
